Measured values: patent US20250325687A1, “CONJUGATE COMPRISING TOLL-LIKE RECEPTOR AGONIST” (MABSOFT THERAPEUTICS (SHANGHAI) CO., LTD., priority 2022, published 2025)
Like-named read-outs stand apart in the source and are kept apart here.

Assays:
Format in all cases: cell-based
[1] = target: T1, hTLR7 (human Toll-like receptor 7) (Homo sapiens, UniProt Q9NYK1); assay: hTLR7 cell assay (HEK-Blue hTLR7 reporter cells); details: 24 hours, OD 650 nm
T1 construct: host or cells: HEK-Blue hTLR7 (HEK293-derived reporter cells)
T1 sequence (Q9NYK1 27-1049): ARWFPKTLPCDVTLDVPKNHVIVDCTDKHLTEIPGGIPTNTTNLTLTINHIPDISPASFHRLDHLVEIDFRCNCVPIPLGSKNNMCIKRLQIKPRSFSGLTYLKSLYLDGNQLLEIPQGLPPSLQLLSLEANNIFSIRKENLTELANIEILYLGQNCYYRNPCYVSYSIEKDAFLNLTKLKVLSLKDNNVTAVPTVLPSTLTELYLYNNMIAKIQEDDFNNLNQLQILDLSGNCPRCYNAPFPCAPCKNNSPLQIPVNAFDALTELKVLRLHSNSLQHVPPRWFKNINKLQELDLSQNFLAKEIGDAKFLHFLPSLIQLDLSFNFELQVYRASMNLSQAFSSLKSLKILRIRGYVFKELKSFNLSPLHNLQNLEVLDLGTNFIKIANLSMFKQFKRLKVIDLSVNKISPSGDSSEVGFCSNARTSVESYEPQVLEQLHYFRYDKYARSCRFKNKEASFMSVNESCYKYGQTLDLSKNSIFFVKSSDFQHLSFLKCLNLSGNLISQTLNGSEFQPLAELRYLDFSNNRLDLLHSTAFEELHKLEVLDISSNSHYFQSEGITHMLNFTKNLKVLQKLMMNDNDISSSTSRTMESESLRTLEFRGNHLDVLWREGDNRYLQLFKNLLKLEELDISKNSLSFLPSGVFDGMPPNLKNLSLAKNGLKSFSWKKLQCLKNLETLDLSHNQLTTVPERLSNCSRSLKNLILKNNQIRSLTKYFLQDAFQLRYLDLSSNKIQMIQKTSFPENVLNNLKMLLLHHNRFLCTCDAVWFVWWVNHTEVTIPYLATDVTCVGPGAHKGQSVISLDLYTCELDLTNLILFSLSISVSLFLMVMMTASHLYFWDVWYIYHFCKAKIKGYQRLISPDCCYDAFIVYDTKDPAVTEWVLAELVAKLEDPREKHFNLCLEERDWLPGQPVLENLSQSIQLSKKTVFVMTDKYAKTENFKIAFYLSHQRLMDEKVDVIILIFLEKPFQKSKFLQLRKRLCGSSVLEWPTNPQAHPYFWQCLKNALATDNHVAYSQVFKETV
Procedure: (§1) The payload compounds of Formula (II′) were assayed to evaluate their agonistic activity on hTLR7 (human Toll-like receptor 7) and hTLR8 (human Toll-like receptor 8). Reporter cells lines (HEK-Blue hTLR7 and HEK-Blue hTLR8) were obtained from InvivoGen. Cells were cryopreserved in liquid nitrogen per supplier's instruction. Upon test, the cells were thawed, passaged and cultured in the growth media of DMEM supplemented with 10% fetal bovine serum, 1×NEAA, 1 mM Pyruvate, 2 mM glutamine, […] in the presence of the following antibiotics, as shown as Table 1. Test compounds (at desired concentrations diluted) were added to the 96-well assay plate, 0.5 μL per well. Reporter cells were harvested from the tissue culture flasks by incubation in PBS at 37° C. for two minutes after the media in the flask is removed and cells rinsed with PBS. Cells were counted and diluted in the HEK-Blue Detection media at 50000 cells/mL and incubated for 24 hours at 37° C., in a 5% CO2 humidified incubator. Then 20 μL of cell supernatant were added to the assay plate containing the 180 µL of QUANTI-Blue, incubated for 1 hour at 37° C. Optical density at 650 nm was analyzed using an Envision (Perkin Elmer) plate reader.

[2] = target: T2, hTLR8 (human Toll-like receptor 8) (Homo sapiens, UniProt Q9NR97); assay: hTLR8 cell assay (HEK-Blue hTLR8 reporter cells); details: 24 hours, OD 650 nm
T2 construct: host or cells: HEK-Blue hTLR8 (HEK293-derived reporter cells)
T2 sequence (Q9NR97 27-1041): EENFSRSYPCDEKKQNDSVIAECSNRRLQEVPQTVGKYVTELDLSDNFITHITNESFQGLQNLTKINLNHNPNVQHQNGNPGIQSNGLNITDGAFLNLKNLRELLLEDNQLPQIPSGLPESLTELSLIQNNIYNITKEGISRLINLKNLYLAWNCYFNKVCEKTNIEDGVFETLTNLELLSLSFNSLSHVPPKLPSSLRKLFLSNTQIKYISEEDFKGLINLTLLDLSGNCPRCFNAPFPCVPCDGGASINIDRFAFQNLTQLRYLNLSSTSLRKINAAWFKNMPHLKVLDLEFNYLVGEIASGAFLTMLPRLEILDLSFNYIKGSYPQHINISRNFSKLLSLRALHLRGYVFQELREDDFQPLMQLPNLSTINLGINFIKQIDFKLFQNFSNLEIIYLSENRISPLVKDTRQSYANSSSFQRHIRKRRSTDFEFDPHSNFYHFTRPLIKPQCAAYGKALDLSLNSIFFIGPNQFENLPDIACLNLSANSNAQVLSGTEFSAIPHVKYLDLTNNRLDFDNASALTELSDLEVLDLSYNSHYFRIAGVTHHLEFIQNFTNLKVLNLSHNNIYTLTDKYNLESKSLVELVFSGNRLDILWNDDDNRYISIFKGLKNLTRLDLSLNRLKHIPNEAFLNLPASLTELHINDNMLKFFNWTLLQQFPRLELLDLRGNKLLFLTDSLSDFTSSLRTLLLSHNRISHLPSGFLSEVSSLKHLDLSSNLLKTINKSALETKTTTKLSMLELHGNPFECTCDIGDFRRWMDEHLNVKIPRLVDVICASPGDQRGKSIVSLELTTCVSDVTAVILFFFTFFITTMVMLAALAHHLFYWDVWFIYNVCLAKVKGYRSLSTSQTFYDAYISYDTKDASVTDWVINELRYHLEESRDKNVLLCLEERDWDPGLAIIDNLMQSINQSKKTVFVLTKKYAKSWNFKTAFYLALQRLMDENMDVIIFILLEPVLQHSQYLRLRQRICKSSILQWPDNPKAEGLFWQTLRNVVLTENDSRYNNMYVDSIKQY
Procedure: as §1

[3] = tested on: human PBMC (human peripheral blood mononuclear cells); assay: PBMC screening assay: induction of TNF-α production; details: read-out: EC50 (μM) TNF-α (hPBMC)
Procedure: The payload compounds of Formula (II′) were assayed to evaluate the induction of TNF-α production in human PBMC (human peripheral blood mononuclear cells).
Human peripheral blood mononuclear cells (PBMC) were obtained from Allcells. […] PBMC were incubated for 24 hours at 37° C. in a 5% CO2 humidified incubator. The following day PBMC plates were centrifuged at 500×g for 5 minutes and the growth media was removed. 200 μL of compound prepared in growth media at a series of diluted concentrations ranging from 2.54 nM to 50 μM were added to PBMC in duplicate and incubated for 24 hours at 37° C. in a 5% CO2 incubator. Prior to supernatant harvest, cells were spun at 500×g for 5 minutes to remove cell debris. TNF-α activity was assessed in the supernatant by ELISA (Elabscience) per the manufacturer's instructions. Optical density at 450 nm (ELISA) was analyzed using a plate reader.

[4] = human PBMC, 24 hours, TNF-α by ELISA, class symbols

Row | Structure (SMILES) | EC50 [1] [nM] | EC50 [2] [nM] | EC50 ([3]; Homo sapiens, PBMC, 24 h) [µM] | EC50 [3, 4] [µM]
1 | CCOCc1nc2c(N)nc3cc(Cc4ccc(CCN)cc4)ccc3c2n1CC(C)(C)O [Compound 2, 1-(4-amino-7-(4-(2-aminoethyl)benzyl)-2-(ethoxymethyl)-1H-imidazo[4,5-c]quinolin-1-yl)-2-methylpropan-2-ol] | 1000 to 10000 | 5000 to 20000 | > 0.64 | –
2 | CCOCc1nc2c(N)nc3cc(Cc4ccc(CCCN)cc4)ccc3c2n1CC(C)(C)O [Compound 3, 1-(4-amino-7-(4-(3-aminopropyl)benzyl)-2-(ethoxymethyl)-1H-imidazo[4,5-c]quinolin-1-yl)-2-methylpropan-2-ol] | 1000 to 10000 | 5000 to 20000 | > 0.64 | –
3 | CCOCc1nc2c(N)nc3cc(Cc4cccc(CN)c4)ccc3c2n1CC(C)(C)O [Compound 4, 1-(4-amino-7-(3-(aminomethyl)benzyl)-2-(ethoxymethyl)-1H-imidazo[4,5-c]quinolin-1-yl)-2-methylpropan-2-ol] | < 1000 | < 5000 | > 0.64 | –
4 | CCC[C@@H](C)c1nc2c(N)nc3cc(Cc4ccc(CCN)cc4)ccc3c2n1CC(C)(C)O [Compound 9, (R)-1-(4-amino-7-(4-(2-aminoethyl)benzyl)-2-(pentan-2-yl)-1H-imidazo[4,5-c]quinolin-1-yl)-2-methylpropan-2-ol] | > 10000 | > 20000 | < 0.64 | –
5 | CCCCc1nc2c(N)nc3cc(Cc4ccc(CCCN)cc4)ccc3c2n1CC(C)(C)O [Compound 15, 1-(4-amino-7-(4-(3-aminopropyl)benzyl)-2-butyl-1H-imidazo[4,5-c]quinolin-1-yl)-2-methylpropan-2-ol] | 1000 to 10000 | < 5000 | – | < 0.64
6 | CCCCc1nc2c(N)nc3cc(Cc4cccc(CN)c4)ccc3c2n1CC(C)(C)O [Compound 16, 1-(4-amino-7-(3-(aminomethyl)benzyl)-2-butyl-1H-imidazo[4,5-c]quinolin-1-yl)-2-methylpropan-2-ol] | < 1000 | < 5000 | – | < 0.64
7 | CCCCc1nc2c(N)nc3cc(Cc4cccc(CCN)c4)ccc3c2n1CC(C)(C)O [Compound 17, 1-(4-amino-7-(3-(2-aminoethyl)benzyl)-2-butyl-1H-imidazo[4,5-c]quinolin-1-yl)-2-methylpropan-2-ol] | < 1000 | < 5000 | – | > 0.64
8 | CCCCc1nc2c(N)nc3cc(Cc4cccc(CCCN)c4)ccc3c2n1CC(C)(C)O [Compound 18, 1-(4-amino-7-(3-(3-aminopropyl)benzyl)-2-butyl-1H-imidazo[4,5-c]quinolin-1-yl)-2-methylpropan-2-ol] | < 1000 | 5000 to 20000 | > 0.64 | –
9 | CCCCc1nc2c(N)nc3cc(Cc4ccc(CCN)cc4)ccc3c2n1CC(C)(C)O [Compound 19, 1-(4-amino-7-(4-(2-aminoethyl)benzyl)-2-butyl-1H-imidazo[4,5-c]quinolin-1-yl)-2-methylpropan-2-ol] | < 1000 | < 5000 | < 0.64 | –
10 | CCCCc1nc2c(N)nc3cc(Cc4cccc(CNC)c4)ccc3c2n1CC(C)(C)O [Compound 20, 1-(4-amino-2-butyl-7-(3-((methylamino)methyl)benzyl)-1H-imidazo[4,5-c]quinolin-1-yl)-2-methylpropan-2-ol] | < 1000 | < 5000 | – | < 0.64
11 | CCOCc1nc2c(N)nc3cc(Cc4ccccc4)ccc3c2n1CC(C)(C)OCCN [Compound 23, 1-(2-(2-aminoethoxy)-2-methylpropyl)-7-benzyl-2-(ethoxymethyl)-1H-imidazo[4,5-c]quinolin-4-amine] | 1000 to 10000 | < 5000 | – | > 0.64
12 | CCC[C@@H](C)c1nc2c(N)nc3cc(Cc4ccccc4)ccc3c2n1CC(C)(C)OCCN [Compound 30, (R)-1-(2-(2-aminoethoxy)-2-methylpropyl)-7-benzyl-2-(pentan-2-yl)-1H-imidazo[4,5-c]quinolin-4-amine] | 1000 to 10000 | < 5000 | – | > 0.64
13 | CCCC(C)c1nc2c(N)nc3cc(Cc4ccccc4)ccc3c2n1CC(C)(C)OCCCN (stereo not shown) [Compound 32, 1-(2-(3-aminopropoxy)-2-methylpropyl)-7-benzyl-2-(pentan-2-yl)-1H-imidazo[4,5-c]quinolin-4-amine] | 1000 to 10000 | < 5000 | – | > 0.64
14 | CCOCc1nc2c(N)nc3cc(Cc4ccccc4)ccc3c2n1CC1(OCCN)CC1 [Compound 44] | 1000 to 10000 | < 5000 | > 0.64 | –
15 | CC(C)(O)Cn1c(CCCC(F)(F)F)nc2c(N)nc3cc(Cc4cccc(CN)c4)ccc3c21 [Compound 51, 1-(4-amino-7-(3-(aminomethyl)benzyl)-2-(4,4,4-trifluorobutyl)-1H-imidazo[4,5-c]quinolin-1-yl)-2-methylpropan-2-ol] | < 1000 | < 5000 | – | > 0.64
16 | CCOCc1nc2c(N)nc3cc(Cc4ccccc4)ccc3c2n1CC(C)(C)O [Compound 171, 1-(4-amino-7-benzyl-2-(ethoxymethyl)-1H-imidazo[4,5-c]quinolin-1-yl)-2-methylpropan-2-ol] | – | – | – | < 0.64
